# Test: Thermodynamic stability of crystalline forms
# Assay type: physicochemical
# Conditions: compared to Form 1
structure (smiles),measurement,value
"CCOC(=O)[C@@H]1CC2(CCN(c3cc(O[C@H](c4ccc(Cl)cc4-c4ccccc4)C(F)(F)F)nc(N)n3)CC2)CN1 [Form 3, (S)-ethyl 8-(2-amino-6-((R)-1-(5-chloro-[1,1′-biphenyl]-2-yl)-2,2,2-trifluoroethoxy)pyrimidin-4-yl)-2,8-diazaspiro[4.5]decane-3-carboxylate]",thermodynamic stability,substantially greater thermodynamic stability compared to Form 1

# Source: US20200237759A1, “DOSAGE REGIME AND METHOD FOR TREATING PULMONARY ARTERIAL HYPERTENSION” (Altavant Sciences GmbH, priority 2019, published 2020)
